From ChEMBL document CHEMBL1135957, “Novel 1',1'-chain substituted Delta(8)-tetrahydrocannabinols” (Bioorg Med Chem Lett, 2002) come the findings set out here.

SMILES strings stand for the structures.

The Ki is the dissociation constant of the complex between target and ligand, obtained from inhibition or displacement.

For assay [1], the target named is Cannabinoid receptor 2 (Mus musculus, UniProt P47936). Nature of the assay: Binding affinity for Cannabinoid receptor 2 by the ability to displace radiolabeled CP-55940 from mouse spleen synaptosomes. It counts as subcellular.
Chain of Cannabinoid receptor 2 (P47936 whole entry): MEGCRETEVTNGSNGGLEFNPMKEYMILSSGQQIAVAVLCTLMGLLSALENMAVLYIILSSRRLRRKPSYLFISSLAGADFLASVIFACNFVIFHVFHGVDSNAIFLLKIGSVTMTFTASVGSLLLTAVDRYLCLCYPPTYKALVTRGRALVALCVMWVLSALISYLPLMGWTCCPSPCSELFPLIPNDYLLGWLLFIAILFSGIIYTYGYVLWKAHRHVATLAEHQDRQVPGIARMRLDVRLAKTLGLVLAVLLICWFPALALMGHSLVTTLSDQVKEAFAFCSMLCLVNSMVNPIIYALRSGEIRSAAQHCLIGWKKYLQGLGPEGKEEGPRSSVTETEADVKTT
For assay [2], the target named is Cannabinoid receptor 1 (Rattus norvegicus, UniProt P20272). As to the kind of experiment: Binding affinity for Cannabinoid receptor 1 by the ability to displace radiolabeled CP-55940 from purified rat forebrain synaptosomes. It counts as subcellular, Brain.
Chain of Cannabinoid receptor 1 (P20272 whole entry): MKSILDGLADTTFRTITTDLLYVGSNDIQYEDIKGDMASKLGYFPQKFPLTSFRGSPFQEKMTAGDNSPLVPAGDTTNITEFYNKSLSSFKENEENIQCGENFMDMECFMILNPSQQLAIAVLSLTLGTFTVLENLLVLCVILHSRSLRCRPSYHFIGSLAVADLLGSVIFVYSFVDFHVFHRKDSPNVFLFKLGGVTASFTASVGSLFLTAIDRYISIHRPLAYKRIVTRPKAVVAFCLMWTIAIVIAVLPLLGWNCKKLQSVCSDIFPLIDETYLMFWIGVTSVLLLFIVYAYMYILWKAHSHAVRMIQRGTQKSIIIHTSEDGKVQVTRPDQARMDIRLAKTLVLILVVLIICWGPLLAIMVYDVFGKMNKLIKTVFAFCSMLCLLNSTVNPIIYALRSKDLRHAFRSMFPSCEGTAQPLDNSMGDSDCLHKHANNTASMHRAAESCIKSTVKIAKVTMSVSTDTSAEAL

Regarding `CCCCCCC1(c2cc(O)c3c(c2)OC(C)(C)[C@@H]2CC=C(C)C[C@@H]32)CC1(Br)Br` (some centres not stated), the Ki in assay [1] turned out to be 1 nM; in assay [2] it was 0.71 nM. In the same order, the values of `C=C(C)C1CCC(C)=CC1c1c(O)cc(C2(CCCCCC)CC2)cc1O` (configuration not stated) are 99 nM and 59 nM. In the same order, the values of `CCCCCCC1(c2cc(O)c3c(c2)OC(C)(C)[C@@H]2CC=C(C)C[C@@H]32)CC1(Cl)Cl` (some centres not stated) are 0.29 nM and 1.27 nM. On to `C=C(C)C1CCC(C)=CC1c1c(O)cc(C2(CCCCCC)CC2(Br)Br)cc1O` (configuration not stated), for which the Ki came out at 63 nM in assay [1] and 189 nM in assay [2]. With `C=C(C)C1CCC(C)=CC1c1c(O)cc(C2(CCCCCC)CC2(Cl)Cl)cc1O` (configuration not stated), the values for the Ki in assay [1] and in assay [2] were 33 nM and 665 nM, respectively. `CCCCCCC1(c2cc(O)c3c(c2)OC(C)(C)[C@@H]2CC=C(C)C[C@@H]32)CC1`: the Ki is 0.86 nM in assay [1] and 0.44 nM in assay [2]. On the same counts, the results for `C=C(C)C1CCC(C)=CC1c1c(O)cc(C2(CCCCCC)SCCS2)cc1O` (configuration not stated) are 50 nM and 136 nM. On the same counts, the results for `CCCCCCC(C)(C)c1cc(O)c2c(c1)OC(C)(C)[C@@H]1CC=C(C)C[C@@H]21` are 0.49 nM and 0.83 nM. In assay [1], `C=C(C)[C@@H]1CCC(C)=C[C@H]1c1c(O)cc(CCCCC)cc1O` [CANNABIDIOL] registered an inhibitory constant (Ki) of 230 nM. That is a sub-micromolar value.
